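Step 1: Grow cells in 96-well plates. Step 2: Expose to compound for 48 hours at 5 concentrations. Step 3: Interpolate endpoints linearly; if unreached, use highest concentration. At the GI50, growth is halved. The concentration for full growth arrest is given as TGI.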 Bounds are passed on as bounds.

These results are taken from PubChem BioAssay (NCI).

What all share (test): NCI tumour cell line growth inhibition, 48 h
Test [1] relates to M14 melanoma.
Test [2] relates to HL-60(TB) leukemia.
For test [3], the system named is SK-MEL-5 melanoma.
For test [4], the system named is KM12 colon.
The subject of test [5] is MOLT-4 leukemia.
For test [6], the system named is CCRF-CEM leukemia.
Test [7] has as its system SNB-19 CNS.
In test [8] the test system is ACHN renal.

Turning to `CNC(=O)OCc1nc(SC2CCCCO2)n(C)c1COC(=O)NC` (stereo not given), the TGI in test [1], in test [2], in test [3], in test [4], in test [5] and in test [6] was over 100 µM in each case. The compound further registered a TGI in test [7] of over 100 µM.
In the case of `Cc1ccncc1.[O]=[Ge].[O]=[Ge].[O]=[Ge].[O]=[Ge].[O]=[Ge].[O]=[Ge][OH].[O]=[Ge][OH]`, the GI50 in test [8], in test [1], in test [2], in test [3], in test [4] and in test [5] was over 100 µM in each case. The GI50 in test [6] and in test [7] was over 100 µM in each case. Moreover, the TGI in test [8], in test [1], in test [2], in test [3], in test [4] and in test [5] was over 100 µM each time. Moreover, the TGI in test [6] and in test [7] was over 100 µM throughout.
Consider `COc1cccc(NC(=O)CC(=O)N2N=C(N(CCC#N)c3ccc(Cl)cc3)CC2c2ccccc2)c1` (stereo not given), for which the TGI in test [8], in test [1], in test [2], in test [3], in test [4] and in test [5] was over 100 µM each time. For the same compound, the TGI in test [6] and in test [7] was over 100 µM throughout.
Turning to `COc1nc(NC2OCC(OC(C)=O)C(OC(C)=O)C2OC(C)=O)c(N=CC=Nc2c(NC3OCC(OC(C)=O)C(OC(C)=O)C3OC(C)=O)nc(OC)n(C)c2=O)c(=O)n1C` (stereo not given), the TGI in test [8], in test [1], in test [2], in test [3], in test [4] and in test [7] was over 100 µM each time.
As for `CC1CCCCc2nc3c(c(=O)n21)CCCC3` (stereo not given), the TGI in test [8], in test [1], in test [4], in test [5] and in test [7] was over 100 µM throughout.
For the compound `CCCCCCCCCCCCOC(=S)NCCCC`, the TGI in test [8] turned out to be 50.5 µM; in test [1] it was 79 µM; in test [2], 43.1 µM; in test [4] it was 41.9 µM; in test [5], 36 µM; in test [6], 80.4 µM. In addition, the TGI in test [7] was over 100 µM.
With `CC(C)C(=O)Nc1nc2nc[nH]c2c(=O)[nH]1`, the TGI in test [8], in test [1], in test [2], in test [3], in test [4] and in test [5] was over 100 µM in each case. In addition, the TGI in test [6] and in test [7] was over 100 µM in each case.
On to `C[N+](C)(C)CC(=O)N/N=C(/Cc1nc2c3c(ccc2[nH]c1=O)C(=O)c1ccccc1C3=O)C(=O)Nc1ccc(Cl)c(Cl)c1`, for which the TGI in test [8], in test [1], in test [2], in test [3], in test [4] and in test [5] was over 100 µM throughout. The compound further came in with a TGI in test [6] of over 100 µM.
In the case of `COc1ccccc1NC(=O)CC(=O)N1N=C(C)C(N=Nc2ccc(S(N)(=O)=O)cc2)C1=O` (stereo not given), the TGI in test [8], in test [1], in test [3], in test [4], in test [5] and in test [7] was over 100 µM throughout.
As to `COC(=O)CCC1CCc2c(OC)ccc(O)c2C1=O` (stereo not given), the TGI in test [8], in test [1], in test [2], in test [3], in test [4] and in test [5] was over 100 µM in each case. Besides, the TGI in test [6] and in test [7] was over 100 µM throughout.
With `COC(=O)CCC(NC(=S)N/N=C(\C)c1nccs1)C(=O)OC` (stereo not given), the TGI was over 100 µM in test [8]; over 100 µM in test [1]; 47.5 µM in test [2]; over 100 µM in test [3]; over 100 µM in test [4]; over 100 µM in test [7].
Regarding `COc1ccc2c(c1)C(O)(C(F)(F)F)c1cc(C(=O)C(F)(F)F)c3ccccc3c1N2` (stereo not given), the TGI in test [8] was found to be 18.1 µM; in test [1] it was 18.1 µM; in test [2] it was 43.2 µM; in test [3] it was 26.6 µM; in test [4], 15.6 µM; in test [5], 33.8 µM. In addition, the TGI in test [6] stood at 29.2 µM; in test [7], 29.5 µM.
Consider `COc1cc(/C=C2\C(=O)N(C(=O)Cc3ccccc3)N=C2C)ccc1O`, for which the TGI in test [8], in test [1], in test [2], in test [3], in test [4] and in test [5] was over 100 µM throughout. Moreover, the TGI in test [6] and in test [7] was over 100 µM in each case.
Consider `N#CC(C(=O)/C(=N/NC(=O)c1ccccc1O)C(C#N)c1ccc(Cl)cc1)c1ccc(Cl)cc1` (stereo not given), for which the TGI in test [8] is 29.6 µM; in test [1], 38.8 µM; in test [2], 53.1 µM; in test [4], 30 µM; in test [6], over 100 µM; in test [7], 30.2 µM.
Take `CCOC(=O)C1=C(C)N(Cc2ccccc2)C(C)=C(C(=O)OCC)C1c1ccccc1O`: the TGI in test [8] is over 100 µM; in test [1], over 100 µM; in test [2], 58.6 µM; in test [3] it was 30.3 µM; in test [4], 64.4 µM; in test [5] it was 32.3 µM. In addition, the TGI in test [6] was 69.5 µM; in test [7], over 100 µM.
For the compound `Cc1ccc(C(=O)O/N=C2/CCC/C2=C\c2ccccc2)cc1`, the TGI in test [8], in test [1], in test [2], in test [3], in test [4] and in test [5] was over 100 µM throughout. In test [6], this compound returned a TGI of over 100 µM.
On to `C=C1C(=O)O[C@H]2[C@H]1[C@H](OC(=O)/C(C)=C\C)CC(=C)[C@@H]1[C@H](O)[C@H]3O[C@@]3(C)[C@@]12O`, for which the TGI in test [8], in test [1], in test [3], in test [4], in test [6] and in test [7] was over 100 µM in each case.
With `O=C(O)c1ccc([Se][Se]c2ccc(C(=O)O)cc2)cc1`, the TGI in test [1] is 35.6 µM; in test [4], 68.4 µM; in test [7], over 100 µM.
